The record followed here is article PMC12097015, “Development of MDM2‐Targeting PROTAC for Advancing Bone Regeneration” (Advanced Science, 2025).

Series [1] has as its system RUNX2, OCN, OPN. Description: qPCR of osteogenic differentiation marker genes in hBMSCs. Format: cell-based, human. Here is the method: Total RNA was extracted from hBMSCs treated with Nutlin‐3 or CL144, as well as from control cells, using Trizol (Invitrogen, 15596026), according to the manufacturer's instructions. cDNA was synthesized using TOPscript RT DryMIX (Enzynomics, RT200). Human gene‐specific primer sequences were used. (Used primer sequences see Table S2, Supporting Information). qPCR was conducted using the SYBR Green qPCR Master Mix (Applied biosystems, 4 309 155). Relative gene expression levels were calculated using the ΔΔCt method with GAPDH as the internal control for normalization.

Series [2] relates to hBMSCs. In words: Calcium deposit staining (X-Rhod-1) in hBMSCs. Format: cell-based, human. Conditions: X‐Rhod‐1, p < 0.05. Here is the method: hBMSCs were differentiated in the presence of the 10 mM β‐glycerophosphate (Sigma‐Aldrich, G9422) and 50 µM ascorbic acid (Sigma‐Aldrich, A4403) in culture medium for 10 d. Subsequently, the cells were fixed with 4% PFA for 30 min, followed by two washes with Mg^2+‐and Ca^2+‐free dPBS (Welgene, LB‐204). To stain for calcium, X‐Rhod‐1 (Invitrogen, X14210) dye was diluted in Mg^2+‐and Ca^2+‐free dPBS at a concentration of 1 µM and incubated at room temperature in the dark for 1 h. The cells were then washed five times with Mg^2+‐and Ca^2+‐free dPBS at 10 min intervals. The samples were observed under a Cytation5 microscope (Agilent Technologies) at a wavelength of 595 nm.

In series [3] the test system is hBMSCs. In words: Alizarin Red S (ARS) staining of hBMSCs under osteogenic differentiation. The format is cell-based, human. Conditions: osteogenic differentiation conditions. Here is the method:
To induce osteogenic differentiation, the cells were seeded in confluent plates and cultured in osteogenic induction medium the following day. The differentiation medium was prepared by adding 10 mM β‐glycerophosphate (Sigma‐Aldrich, G9422), 50 µM ascorbic acid (Sigma‐Aldrich, A4403), and 0.1 µM dexamethasone (Sigma‐Aldrich, D4902) to the culture medium. The cells were treated with MDM2 inhibitors, Nutlin‐3 (Sigma‐Aldrich, N6787) or CL144 in an osteoinductive medium and incubated for 10–14 days to induce osteogenic differentiation. The differentiation medium was changed every 2–3 days (The list of MDM2 inhibitors used is shown in Figure 1A and presented in Table S1, Supporting Information).
Following osteogenic differentiation for the indicated number of days, the cells were fixed in 70% ethanol for 3 min at room temperature or in 4% PFA (Tech & Innovation, BPP‐9004) for 30 min at room temperature, washed with distilled water, and stained with 2% Alizarin Red S (Sigma‐Aldrich; pH 4.2, A5533) for 30 min.

The test system of series [4] is bone marrow. Description: Immunohistochemistry of femur bone marrow in the OVX model. Format: in vivo. Conditions: OVX mice femur. The protocol:
‐Immunohistochemistry: Decalcified femurs were fixed in 4% paraformaldehyde (PFA) at 4 °C for 24 h, rinsed three times with phosphate‐buffered saline (PBS), and decalcified in 12.5 mM EDTA (pH 8.0) for 14 days. The specimens were dehydrated through a graded ethanol series (70%, 80%, 95%, 100%) and embedded in paraffin. Longitudinal sections (3 µm thick) were prepared using a microtome, mounted on glass slides, and dried at 55 °C. For deparaffinization, slides were treated with xylene (four 5‐min treatments) and rehydrated through descending ethanol concentrations (100%, 95%, 80%, 70%) in 2‐min intervals. Immunohistochemistry was performed with a ready‐to‐use IHC/ICC kit (BioVision, Inc.). Sections were incubated overnight at room temperature with primary antibodies (1:100) against MDM2, p53, Bcl‐2, and cleaved caspase‐3, followed by a 20‐min incubation with HRP‐conjugated anti‐mouse IgG polymer. After PBS washes, antigen‐antibody complexes were visualized using 3,3′‐diaminobenzidine (DAB) for 10 min, and sections were counterstained with hematoxylin for 1 minute. The stained sections were imaged using a Slide Scanner (Zeiss, Germany).

Series [5] deals with p53. In words: p53 level by western blot in hBMSCs. The format is cell-based, human. To be noted: 0.1 µM to 10 µM. The protocol:
Human Bone Marrow‐derived Mesenchymal Stem Cells (hBMSCs) were provided by Professor Lee's laboratory, and cells from passages four to nine were used for all experiments. hBMSCs were cultured in alpha‐minimum essential medium (Welgene, LM008‐01) supplemented with 10% Fetal Bovine Serum (FBS) (Gibco, US origin, 16000–044) and 1% penicillin/streptomycin (Gibco, 15140‐122).
(§1) After discarding the medium and washing the cells twice with cold dPBS, the cells were collected using a scraper and lysed using RIPA buffer (GenDEPOT, R4200‐010) containing protease and phosphatase inhibitors (GenDEPOT, P3200‐001). The collected samples were centrifuged at 13 200 rpm for 10 min at 4 °C, and the supernatant containing total protein was collected. SDS‐PAGE gels (10–12%) were prepared, and protein samples were mixed with 5X loading buffer containing reducing agent (Biosesang, S2002) and heated at 98 °C for 5 min. Equal amounts of protein samples were loaded onto a gel, separated by electrophoresis, and transferred onto nitrocellulose membranes using a Dry Transfer Stacks Kit (Invitrogen, IB23001). The membrane was blocked with 5% nonfat milk in 1X TBST for 1 h at room temperature to prevent nonspecific binding. The membranes were incubated with primary antibodies specific to the target proteins overnight at 4 °C with gentle shaking. […]

The target in series [6] is T1, IKZF1 (Homo sapiens, UniProt Q13422).
T1 construct: endogenous in cells; host or cells: hBMSCs
T1 sequence (Q13422 whole entry): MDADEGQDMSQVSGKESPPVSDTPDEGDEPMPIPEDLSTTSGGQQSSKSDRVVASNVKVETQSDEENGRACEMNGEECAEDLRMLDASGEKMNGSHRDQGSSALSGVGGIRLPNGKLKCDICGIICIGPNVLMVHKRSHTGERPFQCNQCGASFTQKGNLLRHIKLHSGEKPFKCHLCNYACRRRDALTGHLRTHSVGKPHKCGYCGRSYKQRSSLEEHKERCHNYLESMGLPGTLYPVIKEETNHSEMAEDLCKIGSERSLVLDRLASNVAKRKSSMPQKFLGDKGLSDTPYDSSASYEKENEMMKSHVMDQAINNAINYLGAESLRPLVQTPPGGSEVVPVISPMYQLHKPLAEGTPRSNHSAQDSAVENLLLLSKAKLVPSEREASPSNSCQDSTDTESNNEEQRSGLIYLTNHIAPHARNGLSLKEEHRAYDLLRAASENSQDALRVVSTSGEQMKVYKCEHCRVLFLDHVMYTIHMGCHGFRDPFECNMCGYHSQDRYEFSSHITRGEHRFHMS
In words: Neo-substrate off-target immunoblot in hBMSCs. The format is cell-based. To be noted: 10 µM, conditions with MDM2 degradation ≈70%. Here is the method:
as §1, with “shaking. The next day, the membrane was washed three times with TBST at 10 min intervals to remove unbound primary antibodies. The membranes were incubated with secondary antibodies (anti‐rabbit and anti‐mouse) conjugated to horseradish peroxidase (HRP) for 1 h at room temperature. The membrane was washed three times with 1X TBST at 10 min intervals to remove unbound secondary antibodies.” for “shaking.”

Regarding `COc1ccc(C2=N[C@H](c3ccc(Cl)cc3)[C@H](c3ccc(Cl)cc3)N2C(=O)N2CCN(CC(=O)NCCCCCCCCOc3cccc4c3C(=O)N(C3CCC(=O)NC3=O)C4=O)C(=O)C2)c(OC(C)C)c1` (stereo in doubt) [CL144], the “OPN mRNA level” value in series [1] (10 μΜ) is “increased”. In addition, the “expression levels of RUNX2 and OCN (mRNA) compared to Nutlin‐3” value in series [1] (same concentrations) was “significantly increased”. For the same compound, the “calcium deposits compared to the control group” value in series [2] is “significantly increased”. Further, in series [3], the “biomineralization / osteogenic potency (ARS staining)” value is listed as “significantly enhanced biomineralization”. In addition, the “expression of apoptosis markers Bcl‐2 or cleaved caspase‐3 (bone marrow toxicity)” value in series [4] (IHC) was “no corresponding increase”. Further, in series [4] (compared to Con and DMSO group), the “MDM2 expression (IHC)” value is “effectively reduced MDM2 expression” and the “p53 expression (IHC)” value is “significantly increased p53 expression”. Also, the p53 levels result in series [5] was “elevated p53 levels in a dose‐dependent manner”. Besides, in series [6], the IKZF1 reduction entry is on record as “about 35%”.
